Results reported in US20260201420A1, “HOMOLOGY-INDEPENDENT TARGETED DNA INSERTION IN HUMAN T CELLS” (The Board of Trustees of The Leland Stanford Junior …, priority 2022, published 2026).

Key:
[1] = system: TRAC; assay: IN&OUT PCR and Sanger sequencing of knock-in junctions; parameters: species or system human; conditions: IN&OUT PCR, Sanger sequencing
Procedure: Genomic DNA was extracted using the PureLink Genomic DNA Mini Kit (Invitrogen). Primers flanking the insertion sites of HITI1c and binding outside the respective homology arm sequence of HDR2c as well as primers binding within the inserted sequences were designed using Primer3Plus (www.primer3plus.com). Phusion Hot Start Flex 2× Mastermix (NEB) was used to amplify genomic regions of interest and DNA gel electrophoresis was conducted using the E-Gel Power Snap System (Thermo Scientific). Samples were shipped to ELIM BIOPHARM for Sanger sequencing. Sequences were aligned for analysis using snapgene.

[2] = system: non-activated T cells; assay: CRISPR knock-in of GD2-CAR in non-activated T cells; format: cell-based, human; conditions: HITI1c vs HDR2c, day 10
Procedure: (§1) On day 2, unless otherwise indicated, Dynabeads were magnetically removed and cells were counted prior to electroporation on the Maxcyte GTx. For electroporation cells were washed once in Electroporation Buffer (Maxcyte) and then resuspended at 2×10^8/ml for small scale experiments or in 2.4 ml for large-scale electroporation. Wildtype Cas9 (61 μM, IDT) and sgRNA (125 μM, IDT) were mixed vol 1:1 resulting in a molar ratio of 2:1 and incubated for 10 min. at room temperature. Hereafter indicated amounts of plasmid DNA (3 mg/ml) were added to the RNP and incubated for at least 10 min. to allow the RNP to cut the plasmid DNA. For small-scale experiments 5×10^6 T cells were resuspended in 25 μl and 1.25 μl of RNP and respective amounts of plasmid DNA were added. Cells were then transferred into OC-25×3 processing assemblies and electroporated using the Expanded T cell 4 protocol for activated T cells or the Resting T cell 14-3 protocol for electroporation of non-activated T cells, which were stimulated after electroporation with Dynabeads at a 1:1 ratio. Small scale experiments for GPC2 CAR knock-in were conducted using the OC100×2 processing assembly with a final reaction volume of 100 μl. For large scale experiments the GMP compatible CL1.1 assembly was used. Post electroporation cells were rested in electroporation buffer either in the processing assembly (OC-25×3, OC-100×2) or in G-Rex 6-well plates (CL1.1) for 30 min. before being transferred into final G-Rex vessels.
(§2) Cell counts and Viability were obtained using the Nexcelom Cellometer Auto 2000. Samples were mixed with AO/PI dye at a 1:1 volume ratio and then analyzed using the setting Immune Cells—Low RBC.
(§3) For GD2-CAR and GPC2-CAR detection, an anti-14g2a idiotype or recombinant human Glypican-2 protein (R&D systems) were fluorescently labeled with the DyLight 650 Microscale Antibody Labeling kit (Thermo Fisher). For intracellular staining CAR+ T cells were co-cultured with respective tumor cell lines at a 1:4 ratio. […]

[3] = system: primary human T cells; assay: CRISPR knock-in of GD2-CAR into TRAC in activated T cells (HDR vs HITI plasmid templates), flow cytometry and cell counts; format: cell-based; conditions: for knock-in frequencies (mean frequencies): GD2-CAR into TRAC, activated T cells electroporated day 2, flow cytometry day 10, n=4 donors
Procedure: (§4) Fresh Leukopaks were obtained from STEMCELL Technologies and processed for negative selection using the EasySep Human T Cell Isolation Kit. Cells were activated using Dynabeads Human T-Activator CD3/CD28 (Thermo Fisher) at a 1:1 ratio and cultivated in TexMACS media supplemented with human IL-7 at 12.5 ng/ml and IL-15 at 12.5 ng/ml (all Miltenyi Biotec) as well as 3% human male AB Serum (Access Cell Culture). The culture volume was expanded over time to maintain cells at a concentration of ^~1.5×10^6/ml using G-Rex 24-well and 6-well plates or G-Rex 100M according to manufacturer's instructions (Wilson-Wolf). Small molecule inhibitors AZD0156 (Selleck Chemicals) and Methotrexate (Sigma Aldrich) were resuspended in DMSO and added to the cell culture media as indicated.
Plasmid DNA was optimized for gene therapeutic application and consisted of two components: R6K origin of replication and an anti-Levansucrase antisense RNA to allow for an antibiotic-free selection. This ^~430 bp backbone prevents transgene silencing after genomic insertion^40,43,44. Knock-In templates were synthesized at Genscript and flanking cut sites for NheI and KpnI were used to clone synthetic genes into plasmid backbones. To introduce RNP cut sites within the plasmid DNA, the genomic target of the respective RNP was included into the above mentioned synthetic gene.
as §1, §2
as §3, with “ratio. Prior to co-cultivation the protein transport inhibitor Monensin (BD) and the anti-CD107a antibody (Biolegend) were added to T cell samples.” for “ratio.”

[4] = system: primary human T cells; assay: Titration of MTX in primary human T cells; format: cell-based
Procedure: as §4
To enable enrichment of the desired CAR+ knock-in population we optimized CEMENT based selection by comparing three different clinically relevant enrichment markers: Dihydrofolate Reductase^L22F/F31S (DHFR-FS), truncated Epidermal Growth Factor Receptor (tEGFR), and truncated Nerve Growth Factor Receptor (tNGFR)^9,17,33. All three enrichment markers were successfully co-inserted along with the GD2-CAR resulting in total transgene sizes of ^~2.5-3 kb. CRISPR knock-in CAR-T cells were either enriched using the FDA approved drug MTX which was diluted from a 10 mM stock in media to result in a 50 nM final concentration. […]

[5] = system: primary human T cells; assay: HITI/CEMENT knock-in CAR-T cell manufacturing at clinical scale; format: cell-based; conditions: end of MTX treatment (day 7), 50 nM
Procedure: as §4
On day 2, unless otherwise indicated, Dynabeads were magnetically removed and cells were counted prior to electroporation on the Maxcyte GTx. For electroporation cells were washed once in Electroporation Buffer (Maxcyte) and then resuspended at 2×10^8/ml for small scale experiments or in 2.4 ml for large-scale electroporation. […]
Cell counts and Viability were obtained using the Nexcelom Cellometer Auto 2000. Samples were mixed with AO/PI dye at a 1:1 volume ratio and then analyzed using the setting Immune Cells—Low RBC. […]

[6] = system: primary human T cells; assay: HDR inhibitor (AZD0156) modulation of GD2-CAR integration via HITI and HDR; format: cell-based
Procedure: as §4
as §1, with “Post electroporation cells were rested in electroporation buffer either in the processing assembly (OC-25×3, OC-100×2) or in G-Rex 6-well plates (CL1.1) for 30 min. before being transferred into final G-Rex vessels.” left out

Question: “HITI1c: Knock-In template plasmid, one cut site: cut_site-EFS-Signalpeptide-14g2a-CD8TM-4-1BB-CD3z-STOP-bGH_ployA (SEQ ID NO: 3)” was tested. Which “Indels at both junctions of integrated plasmid construct” value [1] did it give?
Answer: 6 bp

Question: And the “CAR+ T cell yield in non-activated T cells” value [2]?
Answer: higher

Question: What about the “insertion rates in non-activated T cells” value [2] of the same compound?
Answer: higher

Question: And the “viability in non-activated T cells” value [2]?
Answer: higher

Question: And the “knock-in frequencies (mean frequencies)” value [3]?
Answer: 15.7%

Question: And the “GD2-CAR T cell yields, HITI vs HDR” value ([3]; HITI1c vs HDR2c, day 10, average)?
Answer: ~ 3 fold

Question: What about the “GD2-CAR T cell yield, one cut site vs two cut sites” value ([3]; HITI1c vs HITI2c, day 10) of the same compound?
Answer: ~ 6 fold

Question: And the “insertion rates, HITI1c vs HDR2c” value ([3]; activated T cells, day 10)?
Answer: comparable

Question: What does the source list for `CN(Cc1cnc2nc(N)nc(N)c2n1)c1ccc(C(=O)N[C@@H](CCC(=O)O)C(=O)O)cc1` [MTX, methotrexate]?
Answer: concentration from which efficient killing occurs ([4]; n=2 donors, technical duplicates): ≥ 50 nM; concentration at which MTX exerts cytostatic effects in dividing T cells ([4]; primary human T cells post activation): 50 nM; effects of MTX on viability of edited vs. non-edited T cells [5]: only non-edited cells were compromised in their viability

Question: Which “knock-in frequencies (mean frequencies)” value [3] does the source give for “HITI2c: Knock-In template plasmid, two cut sites: cut_site-EFS-Signalpeptide-14g2a-CD8TM-4-1BB-CD3z-STOP-bGH_ployA-cut_site (SEQ ID NO: 4)” here?
Answer: 9.3%

Question: With `CN(C)CCCOc1ccc(-c2ccc3ncc4c(c3c2)n(C2CCOCC2)c(=O)n4C)cn1` [AZD0156] as the compound, how does the “knock-in efficiency of HDR2c when AZD0156 was added” value ([6]; HDR2c template, 18 hours treatment post electroporation, vs untreated) read?
Answer: decreased knock-in efficiency

Question: What about the “insertion rates for HITI1c when AZD0156 was added” value ([6]; HITI1c template, 18 hours treatment post electroporation, vs untreated) of the same compound?
Answer: higher insertion rates

Question: What about the “GD2-CAR T cell yields in HITI1c samples after AZD0156 treatment” value ([6]; compared to untreated controls) of the same compound?
Answer: decreased GD2-CAR T cell yields
